Source: patent US6495133B1, “Gliocladium roseum strains useful for the control of fungal pathogens in plants” (priority 1998, dated 2002)

Key:
Assay type in all cases: in vivo
Mycosphaerella pinodes [1] = test: Control of seed-borne phase of mycosphaerella blight in field pea, field experiments; conditions: for increased emergence by / increased yield by: average of two cultivars
field pea = test: Effect of seeding dates on efficacy of seed treatment, field experiments; as to yield: unit not given here
Mycosphaerella pinodes [2] = test: Control of mycosphaerella seedling blight/root rot in field pea, field experiments
Rhizoctonia solani = test: Control of rhizoctonia root rot, growth room experiments
[3] = Healthy-looking seed (HL), 1995, AC Tamor
[4] = Healthy-looking seed (HL), 1995, Radley
[5] = Healthy-looking seed (HL), 1996, AC Tamor
[6] = Healthy-looking seed (HL), 1996, Radley
[7] = Visibly poor seed (VP), 1995, AC Tamor
[8] = Visibly poor seed (VP), 1995, Radley
[9] = Visibly poor seed (VP), 1996, AC Tamor
[10] = Visibly poor seed (VP), 1996, Radley
[11] = Optimum seeding, 1995, AC Tamor
[12] = Optimum seeding, 1996, AC Tamor
[13] = Brussel Sprouts (cv. Long Island)
[14] = Cauliflower (cv. Early Snowball)
[15] = Egg Plant (cv. Early Long Purple)

CN(C)C(=S)SSC(=S)N(C)C [Thiram, thiram] was tested, and the “increased emergence by” value (Mycosphaerella pinodes [1]; HL seeds, 1995) was 108%, the “increased yield by” value (Mycosphaerella pinodes [1]; HL seeds, 1995) was 106% and the “decreased yield by” value (Mycosphaerella pinodes [1]; HL seeds, 1996) was 6%. For the same compound, the “increased emergence by” value (Mycosphaerella pinodes [1]; HL seeds, 1996) was 38%, the Emergence (Mycosphaerella pinodes [1]; [3]) was 75.9 a and the Yield (Mycosphaerella pinodes [1]; [3]) was 2892 a. It also gave an Emergence (Mycosphaerella pinodes [1]; [4]) of 91.0 a, a Yield (Mycosphaerella pinodes [1]; [4]) of 459 a and an Emergence (Mycosphaerella pinodes [1]; [5]) of 77.9 a. It also gave a Yield (Mycosphaerella pinodes [1]; [5]) of 7381 a, an Emergence (Mycosphaerella pinodes [1]; [6]) of 89.1 a and a Yield (Mycosphaerella pinodes [1]; [6]) of 3114 b. The “increased emergence by” value (Mycosphaerella pinodes [1]; VP seeds, 1995) was 293%, the “increased yield by” value (Mycosphaerella pinodes [1]; VP seeds, 1995) was 148% and the “increased emergence by” value (Mycosphaerella pinodes [1]; VP seeds, 1996) was 55%. For the same compound, the “increased yield by” value (Mycosphaerella pinodes [1]; VP seeds, 1996) was 4%, the Emergence (Mycosphaerella pinodes [1]; [7]) was 51.0 a and the Yield (Mycosphaerella pinodes [1]; [7]) was 260 a. For the same compound, the Emergence (Mycosphaerella pinodes [1]; [8]) was 29.1 a, the Yield (Mycosphaerella pinodes [1]; [8]) was 643 a and the Emergence (Mycosphaerella pinodes [1]; [9]) was 49.5 a. For the same compound, the Yield (Mycosphaerella pinodes [1]; [9]) was 7228 a, the Emergence (Mycosphaerella pinodes [1]; [10]) was 57.5 a and the Yield (Mycosphaerella pinodes [1]; [10]) was 4410 a. It also gave an Emergence (field pea; Early seeding, 1995, AC Tamor) of 66.7 a, a Yield (field pea; Early seeding, 1995, AC Tamor) of 4934 a and an Emergence (field pea; Early seeding, 1995, Radley) of 72.4 a. The Yield (field pea; Early seeding, 1995, Radley) was 4566 a, the Emergence (field pea; Early seeding, 1996, AC Tamor) was 81.6 a and the Yield (field pea; Early seeding, 1996, AC Tamor) was 2069 b. The Emergence (field pea; Early seeding, 1996, Radley) was 79.5 a, the Yield (field pea; Early seeding, 1996, Radley) was 1295 a and the Emergence (field pea; Late seeding, 1995, AC Tamor) was 35.8 b. It also gave a Yield (field pea; Late seeding, 1995, AC Tamor) of 2454 a, an Emergence (field pea; Late seeding, 1995, Radley) of 55.0 a and a Yield (field pea; Late seeding, 1995, Radley) of 3235 a. It also gave an Emergence (field pea; Late seeding, 1996, AC Tamor) of 87.2 a, a Yield (field pea; Late seeding, 1996, AC Tamor) of 2857 a and an Emergence (field pea; Late seeding, 1996, Radley) of 84.7 a. For the same compound, the Yield (field pea; Late seeding, 1996, Radley) was 1706 a, the Emergence (field pea; [11]) was 62.8 a and the Yield (field pea; [11]) was 3855 a. It also gave an Emergence (field pea; Optimum seeding, 1995, Radley) of 81.3 a, a Yield (field pea; Optimum seeding, 1995, Radley) of 2901 a and an Emergence (field pea; [12]) of 75.5 a. The Yield (field pea; [12]) was 3152 a, the Emergence (field pea; Optimum seeding, 1996, Radley) was 84.7 a and the Yield (field pea; Optimum seeding, 1996, Radley) was 1580 a. For the same compound, the Emergence (Mycosphaerella pinodes [2]; 1996, AC Tamor) was 76.3 a, the Yield (Mycosphaerella pinodes [2]; 1996, AC Tamor) was 2140 ab and the Emergence (Mycosphaerella pinodes [2]; 1996, Radley) was 84.5 a. For the same compound, the Yield (Mycosphaerella pinodes [2]; 1996, Radley) was 1623 a, the Emergence (Mycosphaerella pinodes [2]; 1997, AC Tamor) was 80.0 a and the Yield (Mycosphaerella pinodes [2]; 1997, AC Tamor) was 5645 a. The Emergence (Mycosphaerella pinodes [2]; 1997, Radley) was 80.2 a, the Yield (Mycosphaerella pinodes [2]; 1997, Radley) was 3328 a and the Dry wt. (Rhizoctonia solani; Broccoli (cv. Green Sprouting)) was 0.01 a g/plant. For the same compound, the Emergence (Rhizoctonia solani; Broccoli (cv. Green Sprouting)) was 34.0 a %, the Fresh wt. (Rhizoctonia solani; Broccoli (cv. Green Sprouting)) was 0.1 a g/plant and the Root/foot rot severity (Rhizoctonia solani; Broccoli (cv. Green Sprouting)) was 5.1 ab 0-9. For the same compound, the Dry wt. (Rhizoctonia solani; [13]) was 0.02 a g/plant, the Emergence (Rhizoctonia solani; [13]) was 19.5 b % and the Fresh wt. (Rhizoctonia solani; [13]) was 0.2 ab g/plant. The Root/foot rot severity (Rhizoctonia solani; [13]) was 2.8 a 0-9, the Dry wt. (Rhizoctonia solani; Cabbage (cv. Golden Acre)) was 0.01 a g/plant and the Emergence (Rhizoctonia solani; Cabbage (cv. Golden Acre)) was 59.5 a %. For the same compound, the Fresh wt. (Rhizoctonia solani; Cabbage (cv. Golden Acre)) was 0.2 a g/plant, the Root/foot rot severity (Rhizoctonia solani; Cabbage (cv. Golden Acre)) was 2.9 b 0-9 and the Dry wt. (Rhizoctonia solani; [14]) was 0.01 a g/plant. The Emergence (Rhizoctonia solani; [14]) was 11.5 b %, the Fresh wt. (Rhizoctonia solani; [14]) was 0.1 a g/plant and the Root/foot rot severity (Rhizoctonia solani; [14]) was 4.0 a 0-9. The Dry wt. (Rhizoctonia solani; Cucumber (cv. Imp. Long Green)) was 0.06 a g/plant, the Emergence (Rhizoctonia solani; Cucumber (cv. Imp. Long Green)) was 49.0 b % and the Fresh wt. (Rhizoctonia solani; Cucumber (cv. Imp. Long Green)) was 0.5 a g/plant. It also gave a Root/foot rot severity (Rhizoctonia solani; Cucumber (cv. Imp. Long Green)) of 2.2 b 0-9, a Dry wt. (Rhizoctonia solani; [15]) of 0.01 a g/plant and an Emergence (Rhizoctonia solani; [15]) of 79.3 a %. For the same compound, the Fresh wt. (Rhizoctonia solani; [15]) was 0.1 a g/plant, the Root/foot rot severity (Rhizoctonia solani; [15]) was 1.9 a 0-9 and the Dry wt. (Rhizoctonia solani; Field pea (cv. Radley)) was 0.27 a g/plant. For the same compound, the Emergence (Rhizoctonia solani; Field pea (cv. Radley)) was 55.6 a %, the Fresh wt. (Rhizoctonia solani; Field pea (cv. Radley)) was 2.4 a g/plant and the Root/foot rot severity (Rhizoctonia solani; Field pea (cv. Radley)) was 3.4 a 0-9. It also gave a Dry wt. (Rhizoctonia solani; Garden Pea (cv. Green Arrow)) of 0.15 a g/plant, an Emergence (Rhizoctonia solani; Garden Pea (cv. Green Arrow)) of 89.2 a % and a Fresh wt. (Rhizoctonia solani; Garden Pea (cv. Green Arrow)) of 1.3 a g/plant. It also gave a Root/foot rot severity (Rhizoctonia solani; Garden Pea (cv. Green Arrow)) of 2.1 b 0-9, a Dry wt. (Rhizoctonia solani; Marigold (cv. Lemondrop)) of 0.06 a g/plant and an Emergence (Rhizoctonia solani; Marigold (cv. Lemondrop)) of 75.2 a %. For the same compound, the Fresh wt. (Rhizoctonia solani; Marigold (cv. Lemondrop)) was 0.5 a g/plant, the Root/foot rot severity (Rhizoctonia solani; Marigold (cv. Lemondrop)) was 2.1 a 0-9 and the Dry wt. (Rhizoctonia solani; Pepper (cv. California Wonder)) was 0.01 a g/plant. The Emergence (Rhizoctonia solani; Pepper (cv. California Wonder)) was 70.5 b %, the Fresh wt. (Rhizoctonia solani; Pepper (cv. California Wonder)) was 0.1 a g/plant and the Root/foot rot severity (Rhizoctonia solani; Pepper (cv. California Wonder)) was 1.3 a 0-9. It also gave a Dry wt. (Rhizoctonia solani; Sugar beet (cv. US H2O)) of 0.29 a g/plant, an Emergence (Rhizoctonia solani; Sugar beet (cv. US H2O)) of 57.5 a % and a Fresh wt. (Rhizoctonia solani; Sugar beet (cv. US H2O)) of 4.4 a g/plant. It also gave a Root/foot rot severity (Rhizoctonia solani; Sugar beet (cv. US H2O)) of 1.6 b 0-9, a Dry wt. (Rhizoctonia solani; Table beet (cv. Ruby Queen)) of 0.01 a g/plant and an Emergence (Rhizoctonia solani; Table beet (cv. Ruby Queen)) of 78.5 a %. The Fresh wt. (Rhizoctonia solani; Table beet (cv. Ruby Queen)) was 0.1 a g/plant, the Root/foot rot severity (Rhizoctonia solani; Table beet (cv. Ruby Queen)) was 2.3 b 0-9 and the Dry wt. (Rhizoctonia solani; Tomato (cv. Bush Beefsteak)) was 0.01 a g/plant. It also gave an Emergence (Rhizoctonia solani; Tomato (cv. Bush Beefsteak)) of 87.8 a %, a Fresh wt. (Rhizoctonia solani; Tomato (cv. Bush Beefsteak)) of 0.1 a g/plant and a Root/foot rot severity (Rhizoctonia solani; Tomato (cv. Bush Beefsteak)) of 1.5 a 0-9.
